# Laboratory results taken from publication PMC9551036, “A selective and orally bioavailable VHL-recruiting PROTAC achieves SMARCA2 degradation in vivo” (Nature Communications, 2022).
# Values joined by “and” are separate entries in the source; they are usually repeats but may differ in a detail not shown here. Identical values can stand only once.
# How the values were obtained:
# [1] = Cell viability assay (CellTiter Glo) in a panel of cell lines; type: cell-based, human; conditions: human; for viability at 1 µM: log10 conc -6 mol/l; for viability at 0.316 µM: log10 conc -6.50031 mol/l; for viability at 0.1 µM: log10 conc -7 mol/l; for viability at 1.25 µM: log10 conc -5.90309 mol/l; for viability at 0.313 µM: log10 conc -6.50446 mol/l;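 as to % Viability: percent of DMSO-treated control cells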
# Procedure: (§1) 500–2000 cells were seeded in white, clear bottom 96-well plates (Corning or Perkin Elmer) in 180–200 µl medium per well. The next day, compounds were added using a digital dispenser and a T0 sample was measured for reference. Cells were incubated for 144–192 h, and viability (luminescence) was measured using CellTiter Glo or CellTiter Glo 2.0 (Promega) according to manufacturer’s instructions after equilibrating cells and reagents at room temperature and 10–20 min incubation time while shaking.
# [2] = test system: panel of cell lines (A549, HCC-364, HCC-515, HCC4006, KYSE-30, LU99, LXFA_629L, LXFA_923L, LXFL_529L, LXFL_1121L, MP38, NCI-H23, NCI-H1355, OV-90, SK-MEL-5 …); experiment: as above; type: cell-based, human
# Procedure: as §1
smiles,measurement,setting,value
Cc1ncsc1-c1ccc(C(CCC(C)CCN2CCC(c3ccc4c(c3)n(C3CCCC3)c3nc(=O)c5c(Br)cccc5n43)CC2)NC(=O)C2CC(O)CN2C(=O)C(NC(=O)C2(F)CC2)C(C)(C)C)cc1 (centres unmarked) [ACBI2],viability at 1 µM,"[1]; LXFL 1121L cells, LXFL_1121L",90.4%
same,viability at 0.316 µM,"[1]; LXFL 1121L cells, LXFL_1121L",92.1%
same,viability at 0.1 µM,"[1]; LXFL 1121L cells, LXFL_1121L",89.5%
same,viability at 1 µM,"[1]; MP38 cells, MP38",1.87%
same,viability at 0.316 µM,"[1]; MP38 cells, MP38",0.609%
same,viability at 0.1 µM,"[1]; MP38 cells, MP38",1.6%
same,viability at 1.25 µM,"[1]; NCI-H23 cells, NCI-H23",75.3%
same,viability at 0.313 µM,"[1]; NCI-H23 cells, NCI-H23",76.1%
same,viability at 1.25 µM,"[1]; OV-90 cells, OV-90",35.5%
same,viability at 0.313 µM,"[1]; OV-90 cells, OV-90",45.5%
same,viability at 1.25 µM,"[1]; SK-MEL-5 cells, SK-MEL-5",1.81%
same,viability at 0.313 µM,"[1]; SK-MEL-5 cells, SK-MEL-5",2.34%
same,viability at 1.25 µM,"[1]; TOV-112D cells, TOV-112D",91.7%
same,viability at 0.313 µM,"[1]; TOV-112D cells, TOV-112D",103%
same,HillSlope (viability),[2]; A549,-0.487
same,% Viability,"[2]; A549, log10 conc -7 mol/l",47.919% and 42.1211%
same,% Viability,"[2]; A549, log10 conc -7.50031 mol/l",60.413% and 52.9594%
same,% Viability,"[2]; A549, log10 conc -8 mol/l",70.4787% and 68.1265%
same,% Viability,"[2]; A549, log10 conc -8.50031 mol/l",100.959% and 102.653%
same,HillSlope (viability),[2]; HCC4006,-2.51
same,% Viability,"[2]; HCC4006, log10 conc -7.10735 mol/l",106.752% and 106.118%
same,% Viability,"[2]; HCC4006, log10 conc -8.31158 mol/l",118.541% and 111.324%
same,HillSlope (viability),[2]; HCC-364,-2.992
same,% Viability,"[2]; HCC-364, log10 conc -7.10735 mol/l",39.6895% and 65.8316%
same,% Viability,"[2]; HCC-364, log10 conc -8.31158 mol/l",101.18% and 100.543%
same,HillSlope (viability),[2]; HCC-515,-0.931
same,% Viability,"[2]; HCC-515, log10 conc -7 mol/l",21.3218% and 22.1794%
same,% Viability,"[2]; HCC-515, log10 conc -7.50031 mol/l",21.1243% and 26.9825%
same,% Viability,"[2]; HCC-515, log10 conc -8 mol/l",34.5235% and 34.7052%
same,% Viability,"[2]; HCC-515, log10 conc -8.50031 mol/l",51.5226% and 47.9218%
same,HillSlope (viability),[2]; KYSE-30,-1.122
same,% Viability,"[2]; KYSE-30, log10 conc -7.10735 mol/l",99.6818% and 96.2107%
same,% Viability,"[2]; KYSE-30, log10 conc -8.31158 mol/l",107.107% and 103.099%
same,HillSlope (viability),[2]; LU99,-1.519
same,% Viability,"[2]; LU99, log10 conc -7.10735 mol/l",81.59% and 77.7555%
same,% Viability,"[2]; LU99, log10 conc -8.31158 mol/l",123.387% and 114.143%
same,HillSlope (viability),[2]; LXFA_629L,-0.7355
same,% Viability,"[2]; LXFA_629L, log10 conc -7 mol/l",28.2712% and 27.4037%
same,% Viability,"[2]; LXFA_629L, log10 conc -7.50031 mol/l",41.2713% and 34.5184%
same,% Viability,"[2]; LXFA_629L, log10 conc -8 mol/l",57.9035% and 54.0045%
same,% Viability,"[2]; LXFA_629L, log10 conc -8.50031 mol/l",89.2294% and 82.1746%
same,HillSlope (viability),[2]; LXFA_923L,-0.4788
same,% Viability,"[2]; LXFA_923L, log10 conc -7.50031 mol/l",31.729% and 41.6954%
same,% Viability,"[2]; LXFA_923L, log10 conc -8 mol/l",41.6215% and 47.8343%
same,% Viability,"[2]; LXFA_923L, log10 conc -8.50031 mol/l",63.1043% and 68.2132%
same,HillSlope (viability),[2]; LXFL_529L,-0.4813
same,% Viability,"[2]; LXFL_529L, log10 conc -7.50031 mol/l",17.7092% and 18.3663%
same,% Viability,"[2]; LXFL_529L, log10 conc -8 mol/l",23.2341% and 22.4794%
same,% Viability,"[2]; LXFL_529L, log10 conc -8.50031 mol/l",25.5623% and 26.9316%
same,HillSlope (viability),[2]; LXFL_1121L,-1.483
same,% Viability,"[2]; LXFL_1121L, log10 conc -7.50031 mol/l",92.1257% and 100.242%
same,% Viability,"[2]; LXFL_1121L, log10 conc -8 mol/l",96.5968% and 112.339%
same,% Viability,"[2]; LXFL_1121L, log10 conc -8.50031 mol/l",103.275% and 116.726%
same,HillSlope (viability),[2]; MP38,-1.603
same,% Viability,"[2]; MP38, log10 conc -7.50031 mol/l",10.4737% and 10.5264%
same,% Viability,"[2]; MP38, log10 conc -8 mol/l",48.5822% and 44.1126%
same,% Viability,"[2]; MP38, log10 conc -8.50031 mol/l",84.8854% and 80.6261%
same,HillSlope (viability),[2]; NCI-H23,-0.9596
same,% Viability,"[2]; NCI-H23, log10 conc -7.10735 mol/l",77.4555% and 94.2831%
same,% Viability,"[2]; NCI-H23, log10 conc -8.31158 mol/l",93.614% and 103.354%
same,HillSlope (viability),[2]; NCI-H1355,-1.475
same,% Viability,"[2]; NCI-H1355, log10 conc -8.31158 mol/l",91.2593% and 85.8715%
same,HillSlope (viability),[2]; OV-90,-0.9956
same,% Viability,"[2]; OV-90, log10 conc -7.10735 mol/l",57.2489% and 75.2258%
same,% Viability,"[2]; OV-90, log10 conc -8.31158 mol/l",97.3183% and 109.838%
same,HillSlope (viability),[2]; SK-MEL-5,-1.006
same,% Viability,"[2]; SK-MEL-5, log10 conc -7.10735 mol/l",3.91% and 3.091%
same,% Viability,"[2]; SK-MEL-5, log10 conc -8.31158 mol/l",29.6092% and 31.0459%
same,HillSlope (viability),[2]; TOV-112D,-1.255
same,% Viability,"[2]; TOV-112D, log10 conc -7.10735 mol/l",105.246% and 100.431%
same,% Viability,"[2]; TOV-112D, log10 conc -8.31158 mol/l",103.581% and 98.4682%
